Assay results: patent publication US6924300B2, “Oxyiminoalkanoic acid derivatives” (Takeda Chemical Industries, Ltd., priority 1998, dated 2005)
Read-outs that look alike come from different tables or passages of the source.

Assays:
[1] = test system: KKA^y mice; experiment: Hypoglycemic and hypolipidemic actions in mice (test compound in diet, plasma glucose and triglyceride); assay type: in vivo; conditions: Mus musculus, feed or water, 96 h, 4 days
Procedure: A test compound was added to a powdered diet (CE-2, Clea Japan Inc.) at a concentration of 0.01%, and the diet was given ad libitum to KKA^y mice (9 to 12 weeks old, 5 animals in a group), a model of obese Type II diabetes mellitus (non-insulin dependent diabetes mellitus), for 4 days. During this period, water was given ad libitum. Blood was sampled from orbital venous plexus and plasma glucose and triglyceride levels were determined enzymatically using L type Wako Glu2 (Wako Pure Chemical In. Ltd.) and Iatro-MA701 TG kit (Iatron Laboratories Inc.) or L type Wako TG.H (Wako Pure Chemical Ind. Ltd.), respectively.
The value of each treatment group is represented as % reduction when compared with the non-treatment group, and summarized in Table 1.

[2] = molecular target: T1, PPARγ-RXRα heterodimer (Homo sapiens, UniProt P37231); experiment: PPARγ-RXRα heterodimer transactivation assay (luciferase reporter in PPARγ: RXRα: 4ERPP/CHO-K1 cell); assay type: cell-based; conditions: luciferase induction, 48 hours, concentration for 50% of the maximum activity
T1 construct: expressed in transfected cells
T1 sequence (P37231 1-477 isoform P37231-2): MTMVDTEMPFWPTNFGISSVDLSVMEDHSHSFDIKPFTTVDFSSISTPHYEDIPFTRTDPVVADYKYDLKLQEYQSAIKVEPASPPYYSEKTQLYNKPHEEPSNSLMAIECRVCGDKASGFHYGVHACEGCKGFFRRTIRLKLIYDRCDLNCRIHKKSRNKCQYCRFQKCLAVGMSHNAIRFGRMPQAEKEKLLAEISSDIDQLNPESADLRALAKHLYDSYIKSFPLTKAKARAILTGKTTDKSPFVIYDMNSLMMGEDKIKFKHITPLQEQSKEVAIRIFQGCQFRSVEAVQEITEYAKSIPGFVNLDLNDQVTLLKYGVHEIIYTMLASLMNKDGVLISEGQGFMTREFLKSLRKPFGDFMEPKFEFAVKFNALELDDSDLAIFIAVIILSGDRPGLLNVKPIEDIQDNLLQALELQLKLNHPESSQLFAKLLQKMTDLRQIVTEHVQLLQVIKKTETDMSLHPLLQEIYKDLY
T1 sequence (P19793 1-462 partner): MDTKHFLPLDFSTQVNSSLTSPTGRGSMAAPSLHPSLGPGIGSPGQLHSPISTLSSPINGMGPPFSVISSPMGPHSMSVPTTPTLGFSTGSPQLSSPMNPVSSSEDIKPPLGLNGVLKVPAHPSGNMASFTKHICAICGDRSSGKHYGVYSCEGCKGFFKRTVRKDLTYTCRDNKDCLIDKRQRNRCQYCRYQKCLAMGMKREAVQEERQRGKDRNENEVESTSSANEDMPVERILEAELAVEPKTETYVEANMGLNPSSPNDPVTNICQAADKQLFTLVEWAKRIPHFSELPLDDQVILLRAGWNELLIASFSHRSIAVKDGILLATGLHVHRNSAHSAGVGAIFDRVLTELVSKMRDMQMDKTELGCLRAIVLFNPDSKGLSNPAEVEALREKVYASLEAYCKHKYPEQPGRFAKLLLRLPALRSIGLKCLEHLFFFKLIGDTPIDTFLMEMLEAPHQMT
Procedure: After washing a 96-well white plate with PBS (Phosphate-buffered saline), 90 μl of HAM F12 medium containing 0.1% fatty acid-free bovine serum albumin (BSA) and 10 μl of a test substance were added to the plate, which was then cultured in a carbonate gas incubator at 37° C. for 48 hours. After removing the medium, 40 μl of […] 7.5 (Wako Pure Chemical Ind. Ltd.) was added, and after stirring, a luciferase activity was determined using Lumistar (BMG Labtechnologies GmBH, Germany).
An induction magnitude was calculated based on the luciferase activity of each test substance with the luciferase activity in the non-treatment group being regarded as 1.
Subsequently, the cells were transferred into a HAM F12 medium containing 10% Fetal Bovine Serum and cultured for 24 hours and then the cells were scraped again and centrifuged, and then suspended in HAM F12 medium containing 10% Fetal Bovine Serum supplemented with 500 μg/ml of GENETICIN (Life Technologies, Inc., USA) and 250 μg of ZEOCIN (Invitrogen, USA) and diluted to the density of 10^4 cells/ml upon inoculation to a 96-well plate (Corning Coster Corporation, USA), which was cultured in a carbonate gas incubator at 37° C., whereby obtaining a GENETICIN- and ZEOCIN-resistant transformant.
Subsequently, the transformant cell line thus obtained was cultured in a 24-well plate (Corning Coster Corporation, USA) and then screened, by addition of 10 μM Pioglitazone, for a cell line in which the luciferase expression was induced, i.e., PPARγ: RXRα: 4ERPP/CHO-K1 cell.

[3] = test system: KKA^y mice; experiment: Hypoglycemic and hypolipidemic actions in mice (test compound in diet, plasma glucose and triglyceride); assay type: in vivo; conditions: Mus musculus, feed or water, 96 h, dosage: 0.005% in diet, 4 days
[4] = 0.01% in diet, plasma triglyceride, Iatro-MA701 TG kit, compared with non-treatment group, read-out: Hypotriglyceridemic effect (% reduction)
[5] = 0.01% in powdered diet, plasma glucose, compared with non-treatment group, read-out: Hypoglycemic effect (% reduction)
[6] = 0.01% in diet, plasma triglyceride, quantified using L-type Wako TG.H, read-out: Hypotriglyceridemic effect (% reduction)

SMILES | inhibition in vivo at 0.01 % [1, 4] [%] | inhibition in vivo at 0.01 % [1, 5] [%] | EC50 [2] [nM] | melting point [°C] | also measured
Cc1oc(-c2ccccc2)nc1COc1ccc(CO/N=C(\C(=O)O)c2ccccc2)cc1 [Example 1, Z-2-[4-(5-methyl-2-phenyl-4-oxazolylmethoxy)benzyloxyimino]-2-phenylacetic acid] | 35 | 36 |  |  | 
Cc1oc(-c2ccccc2)nc1COc1ccc(CO/N=C(\CCC(=O)O)c2ccccc2)cc1 [Example 7, E-4-[4-(5-methyl-2-phenyl-4-oxazolylmethoxy)benzyloxyimino]-4-phenylbutyric acid] | 61 | 42 |  |  | 
Cc1oc(-c2ccccc2)nc1COc1ccc(CO/N=C(\C(=O)O)c2ccc(Br)cc2)cc1 [Example 10, Z-2-(4-bromophenyl)-2-[4-(5-methyl-2-phenyl-4-oxazolylmethoxy)benzyloxyimino]acetic acid] | 45 | 36 |  |  | 
Cc1oc(-c2ccccc2)nc1COc1ccc(CO/N=C(\C(=O)O)c2ccc(Oc3ccccc3)cc2)cc1 [Example 11, Z-2-[4-(5-methyl-2-phenyl-4-oxazolylmethoxy)benzyloxyimino]-2-(4-phenoxyphenyl)acetic acid] | 82 | 49 | 410 |  | 
Cc1oc(-c2ccccc2)nc1COc1ccc(CO/N=C(\CCC(=O)O)c2ccc(F)cc2)cc1 [Example 17, E-4-(4-fluorophenyl)-4-[4-(5-methyl-2-phenyl-4-oxazolylmethoxy)benzyloxyimino]butyric acid] |  | 49 | 47 |  | inhibition in vivo at 0.01 % [1, 6]: 59%
Cc1oc(-c2ccccc2)nc1COc1ccc(CO/N=C(\C(=O)O)C(C)C)cc1 [Example 25, Z-3-methyl-2-[4-(5-methyl-2-phenyl-4-oxazolylmethoxy)benzyloxyimino]butyric acid] | 66 | 38 | 790 |  | 
Cc1oc(-c2ccccc2)nc1COc1ccc(CO/N=C(\CCCCCCC(=O)O)c2ccccc2)cc1 [Example 81, E-8-[4-(5-methyl-2-phenyl-4-oxazolylmethoxy)benzyloxyimino]-8-phenyloctanoic acid] |  | 54 | 260 |  | inhibition in vivo at 0.01 % [1, 6]: 75%
Cc1oc(-c2ccccc2)nc1COc1ccc(CO/N=C(\CCC(N)=O)c2ccccc2)cc1 [Example 106, E-4-[4-(5-methyl-2-phenyl-4-oxazolylmethoxy)benzyloxyimino]-4-phenylbutyramide] |  |  | 330 | 164 to 165 | inhibition in vivo at 0.005 % ([3]; plasma glucose, compared with non-treatment group, read-out: Hypoglycemic effect (% reduction)): 46%; inhibition in vivo at 0.005 % ([3]; plasma triglyceride, quantified using L-type Wako TG.H, read-out: Hypotriglyceridemic effect (% reduction)): 65%
COc1cc(CO/N=C(\CCC(=O)O)c2ccccc2)cc(OC)c1OCc1nc(-c2ccccc2)oc1C [Example 146, E-4-[3,5-dimethoxy-4-(5-methyl-2-phenyl-4-oxazolylmethoxy)benzyloxyimino]-4-phenylbutyric acid] |  |  |  | 89 to 90 | 
COC(=O)CC/C(=N\OCc1ccc(OCc2nc(-c3ccco3)oc2C)c(OC)c1)c1ccccc1 [Example 147, methyl E-4-[4-[2-(2-furyl)-5-methyl-4-oxazolylmethoxy]-3-methoxybenzyloxyimino]-4-phenylbutyrate] |  |  |  | 67 to 69 | 
COc1cc(CO/N=C(\CCC(=O)O)c2ccccc2)ccc1OCc1nc(-c2ccco2)oc1C [Example 148, E-4-[4-[2-(2-furyl)-5-methyl-4-oxazolylmethoxy]-3-methoxybenzyloxyimino]-4-phenylbutyric acid] |  |  |  | 131 to 132 | 
COC(=O)CC/C(=N\OCc1ccc(OCc2nc(-c3ccccc3)oc2C)c(OC)c1)c1ccccc1 [Example 149, methyl E-4-[3-methoxy-4-(5-methyl-2-phenyl-4-oxazolylmethoxy)benzyloxyimino]-4-phenylbutyrate] |  |  |  | 112 to 114 | 
COc1cc(CO/N=C(\CCC(=O)O)c2ccccc2)ccc1OCc1nc(-c2ccccc2)oc1C [Example 150, E-4-[3-methoxy-4-(5-methyl-2-phenyl-4-oxazolylmethoxy)benzyloxyimino]-4-phenylbutyric acid] |  |  |  | 134 to 135 | 
